# Active and inactive are the calls of the source. The calls are words filed in the database; no cut-off is given here.
# Key:
# [1] = tested on: Rattus norvegicus; assay: Reduction of lymphocyte count in rat at 3 mg/kg, po measured at 8 hrs relative to control; format: functional
# [2] = Chromatographic hydrophobicity index, log D of the compound at pH 2; format: physicochemical; settings: buffer
# [3] = tested on: Rattus norvegicus; assay: Reduction of lymphocyte count in rat at 3 mg/kg, po measured at 12 hrs relative to control; format: functional
# [4] = tested on: Rattus norvegicus; assay: Reduction of lymphocyte count in rat at 3 mg/kg, po measured at 24 hrs relative to control; format: functional
# [5] = molecular target: Sphingosine 1-phosphate receptor 3 (Homo sapiens, UniProt Q99500); assay: Agonist activity at human S1P3R expressed in RBL membranes assessed as [35S]GTPgammaS binding after 30 mins; format: functional, cell membranes
# Sphingosine 1-phosphate receptor 3, sequence (Q99500 whole entry): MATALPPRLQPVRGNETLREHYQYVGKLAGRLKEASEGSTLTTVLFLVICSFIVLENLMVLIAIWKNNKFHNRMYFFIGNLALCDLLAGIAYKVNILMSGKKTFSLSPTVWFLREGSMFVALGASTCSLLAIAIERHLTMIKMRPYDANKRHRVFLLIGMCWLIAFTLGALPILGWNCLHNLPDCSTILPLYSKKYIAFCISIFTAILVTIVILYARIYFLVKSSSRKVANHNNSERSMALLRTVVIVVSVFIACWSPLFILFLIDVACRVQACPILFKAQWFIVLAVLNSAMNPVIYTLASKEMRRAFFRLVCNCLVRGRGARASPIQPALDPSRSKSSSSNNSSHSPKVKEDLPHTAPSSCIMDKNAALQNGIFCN
# [6] = tested on: Rattus norvegicus; assay: Reduction of lymphocyte count in rat at 3 mg/kg, po measured at 4 hrs relative to control; format: functional
# [7] = molecular target: Sphingosine 1-phosphate receptor 1 (Homo sapiens, UniProt P21453); assay: Agonist activity at human S1P1R expressed in RH7777 membranes assessed as [35S]GTPgammaS binding after 30 mins; format: functional, cell membranes
# Sphingosine 1-phosphate receptor 1, sequence (P21453 whole entry): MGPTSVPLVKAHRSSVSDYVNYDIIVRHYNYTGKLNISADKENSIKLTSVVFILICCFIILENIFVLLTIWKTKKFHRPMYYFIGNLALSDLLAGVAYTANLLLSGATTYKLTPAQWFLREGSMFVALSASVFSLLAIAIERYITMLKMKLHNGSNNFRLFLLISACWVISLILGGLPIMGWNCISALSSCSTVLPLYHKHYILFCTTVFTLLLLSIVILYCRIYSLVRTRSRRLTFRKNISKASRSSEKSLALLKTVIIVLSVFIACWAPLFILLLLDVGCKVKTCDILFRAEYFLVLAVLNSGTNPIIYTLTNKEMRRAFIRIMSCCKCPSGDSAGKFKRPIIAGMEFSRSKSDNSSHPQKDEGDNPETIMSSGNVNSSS
# [8] = Chromatographic hydrophobicity index, log D of the compound at pH 10.5; format: physicochemical; settings: buffer
# [9] = Chromatographic hydrophobicity index, log D of the compound at pH 7.4; format: physicochemical; settings: buffer
# [10] = tested on: Rattus norvegicus; assay: Reduction of lymphocyte count in rat at 1 mg/kg, po measured at 2 to 12 hrs relative to control; format: functional
# [11] = tested on: Canis familiaris; assay: (§1) Half life in Beagle dog at 1 mg/kg, iv or 2 mg/kg, po using DMSO/10%(w/v) Kleptose, 0.9% saline(aq) (2%/98%); format: ADME, organism-based, Canis lupus familiaris; settings: in vivo
# [12] = Intrinsic clearance in dog hepatocyte; format: ADME, cell-based, Canis lupus familiaris; settings: hepatocytes
# [13] = Inhibition of CYP3A4VR (unknown origin); format: ADME, Homo sapiens
# [14] = Clearance in CD rat at 1 mg/kg, iv or 3 mg/kg, po using DMSO/10%(w/v) Kleptose, 0.9% saline(aq) (2%/98%); format: ADME, organism-based; settings: in vivo
# [15] = molecular target: Cytochrome P450 2D6 (Homo sapiens, UniProt P10635); assay: Inhibition of CYP2D6 (unknown origin); format: ADME
# Cytochrome P450 2D6, sequence (P10635 whole entry): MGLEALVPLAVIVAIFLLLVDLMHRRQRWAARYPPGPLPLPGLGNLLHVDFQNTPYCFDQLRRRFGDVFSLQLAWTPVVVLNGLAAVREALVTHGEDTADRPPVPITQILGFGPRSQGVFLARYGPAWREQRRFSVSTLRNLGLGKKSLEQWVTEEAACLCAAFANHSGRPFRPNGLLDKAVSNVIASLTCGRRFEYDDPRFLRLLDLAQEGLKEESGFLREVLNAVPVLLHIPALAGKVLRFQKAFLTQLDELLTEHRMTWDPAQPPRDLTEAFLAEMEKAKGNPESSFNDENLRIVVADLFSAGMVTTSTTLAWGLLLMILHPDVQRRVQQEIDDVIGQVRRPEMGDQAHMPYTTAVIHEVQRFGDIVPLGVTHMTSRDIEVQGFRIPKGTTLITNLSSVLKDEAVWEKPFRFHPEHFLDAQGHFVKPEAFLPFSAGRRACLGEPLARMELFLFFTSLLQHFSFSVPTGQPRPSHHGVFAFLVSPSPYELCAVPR
# [16] = Volume of distribution at steady state in CD rat at 1 mg/kg, iv or 3 mg/kg, po using DMSO/10%(w/v) Kleptose, 0.9% saline(aq) (2%/98%); format: ADME, organism-based; settings: in vivo, read-out: Vdss
# [17] = Half life in CD rat at 1 mg/kg, iv or 3 mg/kg, po using DMSO/10%(w/v) Kleptose, 0.9% saline(aq) (2%/98%); format: ADME, organism-based; settings: in vivo
# [18] = (§2) Oral bioavailability in Beagle dog at 2 mg/kg using Methylcellulose(aq), 1% (w/v) suspension; format: ADME, organism-based, Canis lupus familiaris; settings: beagle, in vivo
# [19] = molecular target: T1, Cytochrome P450 1A2 (Homo sapiens, UniProt P05177); assay: Inhibition of CYP1A2 (unknown origin); format: ADME
# T1 sequence (P05177 whole entry): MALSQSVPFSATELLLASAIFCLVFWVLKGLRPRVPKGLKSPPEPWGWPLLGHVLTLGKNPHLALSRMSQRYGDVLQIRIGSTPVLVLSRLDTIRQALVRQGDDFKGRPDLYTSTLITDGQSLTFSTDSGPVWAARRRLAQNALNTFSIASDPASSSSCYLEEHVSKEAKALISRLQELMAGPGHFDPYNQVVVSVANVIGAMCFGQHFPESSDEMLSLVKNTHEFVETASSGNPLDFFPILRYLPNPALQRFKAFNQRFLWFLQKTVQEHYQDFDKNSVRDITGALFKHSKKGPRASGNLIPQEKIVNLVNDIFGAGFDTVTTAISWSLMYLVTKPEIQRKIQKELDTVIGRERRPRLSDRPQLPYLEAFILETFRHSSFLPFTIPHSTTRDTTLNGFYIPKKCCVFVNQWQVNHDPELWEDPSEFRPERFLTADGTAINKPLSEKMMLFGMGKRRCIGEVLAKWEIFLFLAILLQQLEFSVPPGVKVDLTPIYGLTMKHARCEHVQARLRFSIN
# [20] = tested on: Hepatocyte; assay: Intrinsic clearance in rat hepatocyte; format: ADME, cell-based; settings: hepatocytes
# [21] = Fraction unbound in rat blood; format: ADME, tissue-based
# [22] = Fraction unbound in human blood; format: ADME, tissue-based
# [23] = Fraction unbound in dog blood; format: ADME, tissue-based, Canis lupus familiaris
# [24] = (§3) Volume of distribution at steady state in Beagle dog at 1 mg/kg, iv or 2 mg/kg, po using DMSO/10%(w/v) Kleptose, 0.9% saline(aq) (2%/98%); format: ADME, organism-based, Canis lupus familiaris; settings: beagle, in vivo, read-out: Vdss
# [25] = Dissociation constant, pKa of the compound; format: physicochemical
# [26] = (§4) Oral bioavailability in CD rat at 3 mg/kg using Methylcellulose(aq), 1% (w/v) suspension; format: ADME, organism-based; settings: CD, in vivo
# [27] = molecular target: Cytochrome P450 2C9 (Homo sapiens, UniProt P11712); assay: Inhibition of CYP2C9 (unknown origin); format: ADME
# Cytochrome P450 2C9, sequence (P11712 whole entry): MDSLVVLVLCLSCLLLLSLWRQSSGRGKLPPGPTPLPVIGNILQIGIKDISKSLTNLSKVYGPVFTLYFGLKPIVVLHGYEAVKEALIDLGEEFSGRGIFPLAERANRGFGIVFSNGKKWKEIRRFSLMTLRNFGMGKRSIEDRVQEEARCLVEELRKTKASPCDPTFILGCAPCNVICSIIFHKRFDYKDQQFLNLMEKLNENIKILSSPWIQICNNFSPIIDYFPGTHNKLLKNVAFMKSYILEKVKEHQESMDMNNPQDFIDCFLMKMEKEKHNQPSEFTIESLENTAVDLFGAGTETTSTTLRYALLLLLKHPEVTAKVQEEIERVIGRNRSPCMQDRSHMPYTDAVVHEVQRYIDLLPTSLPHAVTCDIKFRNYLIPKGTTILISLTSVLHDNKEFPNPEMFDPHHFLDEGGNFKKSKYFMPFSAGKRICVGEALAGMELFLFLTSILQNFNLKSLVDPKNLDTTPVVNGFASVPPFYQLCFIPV
# [28] = Inhibition of CYP3A4VG (unknown origin); format: ADME, Homo sapiens
# [29] = tested on: Rattus norvegicus; assay: Reduction in lymphocyte level in po dosed male Lewis rat; format: functional, organism-based
# [30] = molecular target: Cytochrome P450 2C19 (Homo sapiens, UniProt P33261); assay: Inhibition of CYP2C19 (unknown origin); format: ADME
# Cytochrome P450 2C19, sequence (P33261 whole entry): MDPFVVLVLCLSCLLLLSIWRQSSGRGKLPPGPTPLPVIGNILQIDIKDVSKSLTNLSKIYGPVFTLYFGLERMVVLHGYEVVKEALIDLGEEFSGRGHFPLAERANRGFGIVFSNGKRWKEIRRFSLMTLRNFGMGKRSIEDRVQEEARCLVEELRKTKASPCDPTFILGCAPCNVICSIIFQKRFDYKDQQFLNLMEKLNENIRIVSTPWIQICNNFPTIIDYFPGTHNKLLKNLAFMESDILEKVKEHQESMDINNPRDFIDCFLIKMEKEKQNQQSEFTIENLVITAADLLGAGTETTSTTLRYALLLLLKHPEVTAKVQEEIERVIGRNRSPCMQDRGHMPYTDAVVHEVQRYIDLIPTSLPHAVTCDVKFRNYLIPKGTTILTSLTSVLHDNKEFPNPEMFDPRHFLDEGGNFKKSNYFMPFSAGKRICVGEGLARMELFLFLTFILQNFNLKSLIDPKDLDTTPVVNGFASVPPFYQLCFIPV
# [31] = as §1; format: ADME, organism-based, Canis lupus familiaris; settings: beagle, in vivo
# [32] = Clearance in Beagle dog at 1 mg/kg, iv or 2 mg/kg, po using DMSO/10%(w/v) Kleptose, 0.9% saline(aq) (2%/98%); format: ADME, organism-based, Canis lupus familiaris; settings: in vivo
# [33] = tested on: Rattus norvegicus; assay: Reduction of lymphocyte count in rat at 0.3 to 3 mg/kg, po measured relative to control; format: functional, organism-based
# [34] = Solubility in fed-state simulated intestinal fluid at pH 5 after 24 hrs; format: ADME
# [35] = Solubility in fed-state simulated intestinal fluid at pH 6.5 after 24 hrs; format: ADME
# [36] = Solubility in simulated gastric fluid; format: ADME
# [37] = Permeability in MDCK cells; format: ADME, cell-based, Canis lupus familiaris; settings: dog, read-out: permeability
# [38] = Half life in CD rat at 1 mg/kg, iv or 3 mg/kg, po using DMSO/10%(w/v) Kleptose, 0.9% saline(aq) (5%/95%); format: ADME, organism-based; settings: in vivo
# [39] = tested on: Canis familiaris; assay: as §2; format: ADME, organism-based, Canis lupus familiaris; settings: in vivo
# [40] = Clearance in CD rat at 1 mg/kg, iv or 3 mg/kg, po using DMSO/10%(w/v) Kleptose, 0.9% saline(aq) (5%/95%); format: ADME, organism-based; settings: in vivo
# [41] = Volume of distribution at steady state in CD rat at 1 mg/kg, iv or 3 mg/kg, po using DMSO/10%(w/v) Kleptose, 0.9% saline(aq) (5%/95%); format: ADME, organism-based; settings: in vivo, read-out: Vdss
# [42] = tested on: Canis familiaris; assay: as §3; format: ADME, organism-based, Canis lupus familiaris; settings: in vivo
# [43] = tested on: Rattus norvegicus; assay: as §4; format: ADME, organism-based; settings: in vivo
EC50 [5] [µM],EC50 [7] [µM],t1/2 [11] [h],CLH [12] [mL/min/g],IC50 [13] [µM],clearance [14] [mL/min/kg],IC50 [15] [µM],Vd [16] [L/kg],half-life [17] [h],bioavailability [18] [%],IC50 [19] [µM],CLH [20] [mL/min/g],Vd [24] [L/kg],pKa [25],bioavailability [26] [%],IC50 [27] [µM],IC50 [28] [µM],"IC50 ([29]; Rattus norvegicus, Lewis) [µM]",IC50 [30] [µM],SMILES,other results
12.6,0.00501,,,,,,,,,,,,,,,,,,CC(C)Oc1ccc(-c2nc(-c3cccc4c3CCNC4CC(=O)O)no2)cc1C#N (centres undefined),Activity [1]: 69; chromatographic logD [2]: 1.17; Activity [3]: 108; Activity [4]: 132; Activity [6]: 46; chromatographic logD [8]: 1.27; chromatographic logD [9]: 1.58
10,0.0501,1.8,1.7,> 50,0.71,> 50,0.4,6.6,67,> 50,< 0.9,0.9,8.09,78,> 50,> 50,0.099,> 50,CC(C)Oc1ncc(-c2nc(-c3cccc4c3OCCNC4CCCC(=O)O)no2)cc1Cl (stereo in doubt; 31b),inhibition in vivo at 1 mg/kg [10]: > 80%; fraction unbound [21]: 0.004; fraction unbound [22]: 0.016; fraction unbound [23]: 0.015
7.94,0.00794,,< 1.7,> 50,7,> 50,1.5,2.6,69,> 50,< 0.85,1.6,9.15,62,> 50,> 50,0.015,> 50,CC(C)Oc1ccc(-c2nc(-c3ccc4c(c3)CCN(CCCC(=O)O)CC4)no2)cc1C#N,half-life [31]: 8 h; clearance [32]: 3 mL/min/kg; inhibition [33]: Active; solubility at 24 h [34]: 100 µg/mL; solubility at 24 h [35]: 30 µg/mL; solubility [36]: 20 µg/mL; Papp [37]: 15 ×10⁻⁶ cm/s
20,0.0398,0.84,4,,,> 50,,,,> 50,,,,,> 50,,,> 50,"CC(C)Oc1ncc(-c2nc(-c3cccc4c3OCCNC4CCCC(=O)O)no2)cc1Cl (single isomer, unassigned; enantiomer 1)",half-life [38]: 6.4 h; F [39]: 50%; clearance [40]: 1.03 mL/min/kg; Vd [41]: 0.6 L/kg; Fu [22]: 0.014; Fu [23]: 0.01; Vdss [42]: 1.5 L/kg; F [43]: 87%; IC50 [29]: 0.091 µM
